Data published in paper PMC11247486, “Improving the In Vivo Stability of [^52Mn]Mn(II) Complexes with 18-Membered Macrocyclic Chelators for PET Imaging” (Journal of Medicinal Chemistry, 2024).

What was measured:
[1] = 1H NMR relaxometry (relaxivity as a function of pH); type: physicochemical; conditions: around neutral pH, 61 MHz and 25 °C
From the text: The studies reported by Branco assumed the formation of a protonated [Mn(HL)]^3+ species for the Mn-PYAN complex characterized by protonation constant log KMnLH = 5.19 (KMnLH = [MnHL]/[MnL] × [H^+]).[42] However, our pH-potentiometric data could be fitted very well without considering the formation of protonated species or hydroxo-complexes. In order to confirm that the equilibrium model used to fit the pH-potentiometric data was correct, we measured the relaxivity (r1p) of aqueous solutions of the complexes as a function of pH (Figure 4). Relaxivity measures the ability of a paramagnetic solute to enhance the longitudinal relaxation rate of solvent water molecules, normalized for a 1 mM concentration of the paramagnetic ion.[45] The r1p values measured around neutral pH values (0.83 and 1.40 mM^–1 s^–1 at 61 MHz and 25 °C for Mn-PYAN and Mn-CHXPYAN, respectively) are typical of complexes that lack one or more water molecules in the inner coordination sphere, the observed relaxivity being the result of the outer-sphere contribution.[46] Relaxivity is fairly constant in the pH range of 6–9 but increases below pH ∼ 6 due to complex dissociation, reaching a relaxivity of 6.00 mM^–1 s^–1 at pH 3, 61 MHz, and 25 °C that is characteristic of the [Mn(H2O)6]^2+ complex.[47] The relaxivity profile matches the speciation diagrams calculated using the equilibrium constants obtained by pH potentiometry very well, which provides support for the equilibrium model used to fit the potentiometric data. It is worth noting that complex dissociation takes place at a lower pH for Mn-CHXPYAN than for Mn-PYAN, as expected, considering their pMn values.
The relaxivity values were calculated from the longitudinal relaxation time of H2O protons (T1) measured at 61 MHz on a Stelar relaxometer connected to a Bruker WP80 NMR electromagnet adapted to variable-field measurements (15–80 MHz proton Larmor frequency). […] The longitudinal relaxation time was measured with the “inversion recovery” method (180°–τ–90°) by using 12 different τ values with a typical 90° pulse width of 10.7 μs, 4 scans. […]

[2] = protonation constant of the complex, KMnLH = [MnHL]/[MnL] × [H^+]; cited from earlier work

| Compound | relaxivity r1p [1] | log KMnLH [2] |
| --- | --- | --- |
| [Mn+2].c1cc2nc(c1)CN[C@@H]1CCCC[C@H]1NCc1cccc(n1)CN[C@@H]1CCCC[C@H]1NC2 [Mn-CHXPYAN] | 1.40 mM^–1 s^–1 |  |
| [Mn+2].c1cc2nc(c1)CNCCNCc1cccc(n1)CNCCNC2 [Mn-PYAN] | 0.83 mM^–1 s^–1 | 5.19 |
